B1: SIRT3-H248Y-His: catalytically inactive SIRT3 (protein, UniProt Q9NTG7 1-399, looked up, variant H248Y)
chain: MAFWGWRAAAALRLWGRVVERVEAGGGVGPFQACGCRLVLGGRDDVSAGLRGSHGARGEPLDPARPLQRPPRPEVPRAFRRQPRAAAPSFFFSSIKGGRRSISFSVGASSVVGSGGSSDKGKLSLQDVAELIRARACQRVVVMVGAGISTPSGIPDFRSPGSGLYSNLQQYDLPYPEAIFELPFFFHNPKPFFTLAKELYPGNYKPNVTHYFLRLLHDKGLLLRLYTQNIDGLERVSGIPASKLVEAYGTFASATCTVCQRPFPGEDIRADVMADRVPRCPVCTGVVKPDIVFFGEPLPQRFLLHVVDFPMADLLLILGTSLEVEPFASLTEAVRSSVPRLLINRDLVGPLAWHPRSRDVAQLGDVVHGVESLVELLGWTEEMRDLVQRETGKLDGPDK
modifications: His tag

What was measured:
HIF1α = HIF1α protein level (immunoblot) in SIRT3 WT and KO MEFs; assay type: cell-based, mouse; conditions: 1 mM DMOG
Method: Significance was assessed by one-way ANOVA. […] Error bars, ±SD. […] Error bars (except for growth curves), ±SEM. (*) p<0.05; (**) p<0.01.
(§1) A series of experiments were performed comparing the effects of hypoxia and DMOG treatment on SIRT3 WT and KO MEFs.

HIF1α target genes = experiment: Expression of HIF1α target genes (qRT-PCR) in SIRT3 WT and KO MEFs; assay type: cell-based, mouse; conditions: DMOG treatment
Method: (B) Fold induction of HIF1αtarget genes in response to hypoxia (n=6) measured by qRT-PCR. The ratio of hypoxic to normoxic gene expression is shown. (C) Fold induction of Glut1 and Hk2 in response to DMOG treatment was measured by qRT-PCR and the ratio of untreated to DMOG-treated gene expression is shown (n=6). […] Significance was assessed by one-way ANOVA. […] Error bars, ±SD.
as §1

SIRT3 KO MEFs = experiment: Growth rates of SIRT3 WT and KO MEFs cultured with NAC; assay type: cell-based, mouse; conditions: media supplemented with 10 mM NAC
Method: (A) Nuclear extracts from shNS and shSIRT3 HEK293T cells treated with or without 10 μM MG-132 for 1 hour or 1 mM DMOG for 4 hours as indicated were immunoblotted with antibodies specific to hydroxylated HIF1α (HIF—OH) or total HIF1α. (B) Fold induction of HIF1αtarget genes in response to hypoxia (n=6) measured by qRT-PCR. The ratio of hypoxic to normoxic gene expression is shown. (C) Fold induction of Glut1 and Hk2 in response to DMOG treatment was measured by qRT-PCR and the ratio of untreated to DMOG-treated gene expression is shown (n=6). (D) The increase in ROS production with hypoxia was calculated as the fold change in ROS in hypoxic cells relative to normoxic controls. […] Significance was assessed by one-way ANOVA. […] Error bars, ±SD. Protein carbonyls (I) and lipid peroxidation (J) were measured in brown adipose tissue (BAT) of SIRT3 WT and KO mice (n=7). […] Error bars (except for growth curves), ±SEM. […]
To confirm that the metabolite patterns reflected an increase in glycolysis, lactate produced and secreted from SIRT3 WT and KO MEFs (n=5) was measured and normalized to cell number. […] To test whether this apparent increase in aerobic glycolysis supported an increase in biomass and proliferation, growth rates of the MEFs were measured by seeding SIRT3 WT and KO MEFs in six-well plates at a density of 5,000 cells/well and counting the number of cells in triplicate every 24 hours. […]

SIRT3 WT and KO MEFs = experiment: Glucose uptake and lactate secretion in MEFs with oxidation inhibitors; assay type: cell-based, mouse; conditions: WT cells; 100 nM rotenone or 50 μg/ml etomoxir, 24 hours
Source text: (A) Schematic illustrating the metabolites that are increased or decreased in SIRT3 KO MEFs compared to SIRT3 WT MEFs (n=4), p<0.1. Metabolites in parentheses were not measured. PPP, pentose phosphate pathway. The nonoxidative and oxidative arms of the PPP are shown. Levels of glycolytic intermediates (B), TCA cycle intermediates (C), glucose (D), glucose-1-phosphate (E) and ribose-5-phosphate (F). Growth curves of SIRT3 WT and KO MEFs (n=3) cultured in media containing glucose (G) or galactose (H). Error bars, ±SD. (1-N) Glucose uptake and lactate production in SIRT3 WT and KO MEFs (n=6). (I) Relative glucose uptake and (J) lactate production in SIRT3 WT and KO MEFs. (K) Relative glucose uptake and (L) relative lactate production in SIRT3 WT and KO MEFs incubated with or without 100 nM rotenone. (M) Glucose uptake and (N) lactate production in SIRT3 WT and KO MEFs cultured in the presence or absence of 50 μg/ml etomoxir. Cells were treated with drugs for 24 hours before measuring glucose uptake and lactate. All error bars (except growth curves), ±SEM. […]
Metabolites were isolated by methanol extraction from cultured cells and analyzed by liquid chromatography-mass spectrometry (LC-MS). Lactate production was measured using the Lactate Reagent Kit (Trinity Biosciences). […] SDH activity was determined by a colorometric spectrophotometric assay measuring the reduction of 2,6-dichlorophenolindophenol.

CAMA1 cells = experiment: Glucose uptake and lactate production in CAMA1 control or SIRT3 overexpressing cells with rotenone or etomoxir; assay type: cell-based, human; conditions: 100 nM rotenone or 50 μg/ml etomoxir
Method: (A) Lactate production and (B) glucose consumption of MCF7, T47D and CAMA1 cells stably expressing empty vector or SIRT3 and cultured under hypoxia expressed as a ratio of empty-vector normoxic controls. (C) Relative glucose uptake and (D) relative lactate production in CAMA1 control or SIRT3 overexpressing cells incubated with or without 100 nM rotenone. (E) Glucose uptake and (F) lactate production in CAMA1 cell lines cultured in the presence or absence of 50 μg/ml etomoxir. (G) Immunoblots of CAMA1 cells stably expressing control vector or SIRT3-FLAG cultured at 1% oxygen for the indicated. (H) qRT-PCR of HIF1α target genes in CAMA1 cells cultured at 1% oxygen. (I) Induction of HIF1α target genes in response to hypoxia measured by qRT-PCR in CAMA1 cells. The ratio of normoxic to hypoxic gene expression in each cell line is shown. (J) Induction of HIF1α target genes in response to 1 mM DMOG treatment measured by qRT-PCR in CAMA1 cells. The ratio of untreated to DMOG-treated gene expression in each cell line is shown. Growth curves of CAMA1 cells (n=3) cultured in glucose (K) or galactose (L). Error bars, ±SD. (M) Schematic of the regulation of HIF1α and the Warburg effect by SIRT3. β-2-microglobulin was used as an endogenous control for qRT-PCR. Error bars (except for growth curves), ±SEM. (*) p<0.05; (**) p<0.01.
To examine the contribution of complex I activity or fatty acid oxidation on these phenotypes, glucose uptake and lactate production was measured in the presence of rotenone and etomoxir.
Metabolites were isolated by methanol extraction from cultured cells and analyzed by liquid chromatography-mass spectrometry (LC-MS). Lactate production was measured using the Lactate Reagent Kit (Trinity Biosciences). For immunoblotting, cell lysates and immunoprecipitations were probed with the following antibodies: Total OXPHOS antibody cocktail, complex II antibody cocktail, and OSCP (Mitosciences); Flag (Sigma); acetyl-lysine, LSD1 and hydroxylated HIF1α (Cell Signaling); SUCLA2 and GFP (Santa Cruz); GDH (USBiological); mouse HIF1α (Novus Biologicals) and human HIF 1 (BD Biosciences). The antibody recognizing murine SIRT3 was raised in rabbits against the (C) […] epitope conjugated to KLH at the added cysteine (Covance Research Products). SDH activity was determined by a colorometric spectrophotometric assay measuring the reduction of 2,6-dichlorophenolindophenol.

SDHA = experiment: In vitro deacetylation of SDHA in complex II immunoprecipitates; assay type: biochemical, mouse; conditions: with NAD, 2 hours at 37° C.

Row | Molecule | glycolysis (glucose uptake and lactate production) (SIRT3 WT and KO MEFs) | glucose uptake (CAMA1 cells) | lactate production (CAMA1 cells) | other results
1 | COC(=O)CNC(=O)C(=O)OC [DMOG, dimethyloxaloylglycine] | – | – | – | HIF1α stabilization (HIF1α): stabilize HIF1α; expression of HIF1α target genes (Glut1, Hk2) (HIF1α target genes): induce expression of HIF1α target genes
2 | CC(=O)N[C@@H](CS)C(=O)O [NAC, N-acetylcysteine] | – | – | – | proliferation (growth rate) (SIRT3 KO MEFs): rescued the increased proliferation of SIRT3 KO MEFs
3 | C=C(C)[C@H]1Cc2c(ccc3c2O[C@@H]2COc4cc(OC)c(OC)cc4[C@@H]2C3=O)O1 [rotenone] | increased | increased | increased | –
4 | CCOC(=O)[C@@]1(CCCCCCOc2ccc(Cl)cc2)CO1 [etomoxir] | increased | increased | increased | –
5 | B1 | – | – | – | deacetylation of SDHA (SDHA): not

From patent US20130171125A1, “Methods for the Regulation of Cellular Metabolism Through the Modulation of SIRT3 Activity” (National Institutes of Health (NIH), U.S. Dept. of Health …, priority 2010, published 2013)
